Test results reported in paper PMC5896380, “Selective imaging of cathepsin L in breast cancer by fluorescent activity-based probes” (Chemical Science, 2018).
Non-standard residues stand in square brackets, D forms with d. *: point of attachment. Phe(F5) = N[C@@H](Cc1c(F)c(F)c(F)c(F)c1F)C(=O)O; Phe(3,4-F2) = N[C@@H](Cc1ccc(F)c(F)c1)C(=O)O; Phe(2-Cl) = N[C@@H](Cc1ccccc1Cl)C(=O)O; Phe(4-F) = N[C@@H](Cc1ccc(F)cc1)C(=O)O; Phe(2-F) = N[C@@H](Cc1ccccc1F)C(=O)O; ACC = NC(=O)Cc1cc(=O)oc2cc(N*)ccc12; Met(O) = CS(=O)CC[C@H](N)C(=O)O; Tic = O=C(O)[C@@H]1Cc2ccccc2CN1; dOrn = NCCC[C@@H](N)C(=O)O; Orn = NCCC[C@H](N)C(=O)O; Dab = NCC[C@H](N)C(=O)O

Tests used:
Assay type in all cases: biochemical
Conditions in all cases: Table S4; substrate 100µM, cathepsin 5nM; pH 5.5, 37 °C; average of at least three screenings
cathepsin L = biological target: T1, cathepsin L (Homo sapiens, UniProt P07711); assay: Substrate selectivity screening, rate of hydrolysis, cathepsin L
T1 construct: made in house
Description: (§1) All kinetic experiments were performed using fMax (Molecular Devices) and CLARIOStar (BMG LABTECH) spectrofluorimeters operating in kinetic mode using 96-well plates. ACC-labeled substrates were screened using 355 nm and 460 nm wavelengths (excitation and emission, respectively). […] The buffer was prepared at room temperature and the enzyme kinetic studies were performed at 37 °C.
(§2) All potentially selective cathepsin L substrates were tested for their selectivity against a panel of five different cathepsins, containing cathepsins L, V, S, K and […], at concentrations of 2 μM and 100 μM. To obtain reliable results the concentration of each cathepsin was 5 nM. Substrate hydrolysis was carried out for 10 min (for cathepsin L) and for up to 60 min (for other cathepsins). Hydrolysis rates (RFU s^–1) are presented as average values from at least three screenings.

cathepsin K = biological target: T2, cathepsin K (Homo sapiens, UniProt P43235); assay: Substrate selectivity screening, rate of hydrolysis, cathepsin K
T2 construct: made in house
T2 sequence (P43235 115-329): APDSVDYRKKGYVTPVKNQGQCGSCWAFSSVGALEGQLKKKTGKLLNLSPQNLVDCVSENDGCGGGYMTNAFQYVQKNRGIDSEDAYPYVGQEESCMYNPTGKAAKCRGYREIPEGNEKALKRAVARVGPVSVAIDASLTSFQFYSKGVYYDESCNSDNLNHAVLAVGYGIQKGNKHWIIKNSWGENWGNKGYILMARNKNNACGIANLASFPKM
Description: as §1, §2

cathepsin S = biological target: T3, cathepsin S (Homo sapiens, UniProt P25774); assay: Substrate selectivity screening, rate of hydrolysis, cathepsin S
T3 construct: made in house
Description: as §1, §2

cathepsin B = biological target: T4, cathepsin B (Homo sapiens, UniProt P07858); assay: Substrate selectivity screening, rate of hydrolysis, cathepsin B
T4 construct: made in house
Description: as §1, §2

cathepsin V = biological target: T5, cathepsin V (Homo sapiens, UniProt O60911); assay: Substrate selectivity screening, rate of hydrolysis, cathepsin V
T5 construct: made in house
Description: as §1, §2

T5 sequence (O60911 114-334): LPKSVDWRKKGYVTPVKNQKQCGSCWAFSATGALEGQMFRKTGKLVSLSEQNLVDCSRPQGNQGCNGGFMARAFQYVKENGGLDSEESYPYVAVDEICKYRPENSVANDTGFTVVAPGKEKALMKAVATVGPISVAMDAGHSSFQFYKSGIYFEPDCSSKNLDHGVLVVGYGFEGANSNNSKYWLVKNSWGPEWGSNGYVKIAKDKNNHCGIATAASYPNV
T3 sequence (P25774 115-331): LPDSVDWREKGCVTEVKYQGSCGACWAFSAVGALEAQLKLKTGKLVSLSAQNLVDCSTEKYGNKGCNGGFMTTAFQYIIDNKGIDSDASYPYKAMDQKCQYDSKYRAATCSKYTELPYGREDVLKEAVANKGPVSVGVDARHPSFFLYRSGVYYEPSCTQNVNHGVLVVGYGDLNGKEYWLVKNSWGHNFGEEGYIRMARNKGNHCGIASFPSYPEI
T1 sequence (P07711 114-333): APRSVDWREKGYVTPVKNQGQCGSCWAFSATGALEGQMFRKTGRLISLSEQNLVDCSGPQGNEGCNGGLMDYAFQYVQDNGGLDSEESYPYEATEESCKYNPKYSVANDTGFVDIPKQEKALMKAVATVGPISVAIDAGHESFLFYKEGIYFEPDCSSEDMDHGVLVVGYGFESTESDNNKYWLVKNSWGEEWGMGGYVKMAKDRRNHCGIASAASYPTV

Row | Substance | Relative substrate activity (rate of hydrolysis), cathepsin L (cathepsin L) [RFU/s] | Relative substrate activity (rate of hydrolysis), cathepsin K (cathepsin K) [RFU/s] | Relative substrate activity (rate of hydrolysis), cathepsin S (cathepsin S) [RFU/s] | Relative substrate activity (rate of hydrolysis), cathepsin B (cathepsin B) [RFU/s] | Relative substrate activity (rate of hydrolysis), cathepsin V (cathepsin V) [RFU/s]
1 | Ac-H[dL][Phe(F5)][Orn]-{ACC} (SMILES CC(=O)N[C@@H](Cc1c[nH]cn1)C(=O)N[C@H](CC(C)C)C(=O)N[C@@H](Cc1c(F)c(F)c(F)c(F)c1F)C(=O)N[C@@H](CCCN)C(=O)Nc1ccc2c(CC(N)=O)cc(=O)oc2c1) | 153 | 0.3 | 0.0 | 0.0 | 0.0
2 | Ac-H[dR][Phe(3,4-F2)]L-{ACC} (SMILES CC(=O)N[C@@H](Cc1c[nH]cn1)C(=O)N[C@H](CCCNC(=N)N)C(=O)N[C@@H](Cc1ccc(F)c(F)c1)C(=O)N[C@@H](CC(C)C)C(=O)Nc1ccc2c(CC(N)=O)cc(=O)oc2c1) | 474 | 0.0 | 12.7 | 22.3 | 30.5
3 | Ac-Pip-DLeu-Phe(3,4-F2)-Arg-ACC | 699 | 1.2 | 7.8 | 9.4 | 103
4 | Ac-[Met(O)][dR][Phe(2-F)]R-{ACC} (SMILES CC(=O)N[C@@H](CCS(C)=O)C(=O)N[C@H](CCCNC(=N)N)C(=O)N[C@@H](Cc1ccccc1F)C(=O)N[C@@H](CCCNC(=N)N)C(=O)Nc1ccc2c(CC(N)=O)cc(=O)oc2c1) | 658 | 0.2 | 21.1 | 76.2 | 129
5 | Ac-[Tic][Dab][Phe(3,4-F2)]R-{ACC} (SMILES CC(=O)N1Cc2ccccc2C[C@H]1C(=O)N[C@@H](CCN)C(=O)N[C@@H](Cc1ccc(F)c(F)c1)C(=O)N[C@@H](CCCNC(=N)N)C(=O)Nc1ccc2c(CC(N)=O)cc(=O)oc2c1) | 825 | 0.2 | 2.8 | 41.2 | 28.4
6 | Ac-[Tic][Orn][Phe(4-F)]L-{ACC} (SMILES CC(=O)N1Cc2ccccc2C[C@H]1C(=O)N[C@@H](CCCN)C(=O)N[C@@H](Cc1ccc(F)cc1)C(=O)N[C@@H](CC(C)C)C(=O)Nc1ccc2c(CC(N)=O)cc(=O)oc2c1) | 684 | 0.0 | 4.7 | 15.0 | 31.7
7 | Ac-[Tic][dOrn][Phe(2-Cl)]K-{ACC} (SMILES CC(=O)N1Cc2ccccc2C[C@H]1C(=O)N[C@H](CCCN)C(=O)N[C@@H](Cc1ccccc1Cl)C(=O)N[C@@H](CCCCN)C(=O)Nc1ccc2c(CC(N)=O)cc(=O)oc2c1) [Tic-DArg-Phe(2-Cl)-Lys] | 134 | 0.0 | 10.3 | 3.1 | 36.1
